Assays:
Assay in all cases: kinobeads assay with mass spectrometry detection of kinases (kinase selectivity profile)
Type in all cases: binding
kinases (kinome) [1] = biological target: T1, kinases (kinome) (Homo sapiens, UniProt P51812); conditions: RSK2 (AGC), IPI00020898
T1 construct: determined in kinobeads assays with mass spectrometry detection of kinases as described previously; endogenous in cells; host or cells: cell lysate
Text: (§1) The protein kinase complement of the human genome (the kinome) was described previously (Manning et al., 2002. Science 298(5600):1912-1934). Sequence accession numbers are defined by the International Protein Index (IPI) (Kersey et al., 2004. Proteomics 4(7):1985-1988).

kinases (kinome) [2] = biological target: T2, kinases (kinome) (Homo sapiens, UniProt Q9BZL6); conditions: PKD2 (CAMK), IPI00009334
T2 construct: determined in kinobeads assays with mass spectrometry detection of kinases as described previously; endogenous in cells; host or cells: cell lysate
T2 sequence (Q9BZL6 whole entry): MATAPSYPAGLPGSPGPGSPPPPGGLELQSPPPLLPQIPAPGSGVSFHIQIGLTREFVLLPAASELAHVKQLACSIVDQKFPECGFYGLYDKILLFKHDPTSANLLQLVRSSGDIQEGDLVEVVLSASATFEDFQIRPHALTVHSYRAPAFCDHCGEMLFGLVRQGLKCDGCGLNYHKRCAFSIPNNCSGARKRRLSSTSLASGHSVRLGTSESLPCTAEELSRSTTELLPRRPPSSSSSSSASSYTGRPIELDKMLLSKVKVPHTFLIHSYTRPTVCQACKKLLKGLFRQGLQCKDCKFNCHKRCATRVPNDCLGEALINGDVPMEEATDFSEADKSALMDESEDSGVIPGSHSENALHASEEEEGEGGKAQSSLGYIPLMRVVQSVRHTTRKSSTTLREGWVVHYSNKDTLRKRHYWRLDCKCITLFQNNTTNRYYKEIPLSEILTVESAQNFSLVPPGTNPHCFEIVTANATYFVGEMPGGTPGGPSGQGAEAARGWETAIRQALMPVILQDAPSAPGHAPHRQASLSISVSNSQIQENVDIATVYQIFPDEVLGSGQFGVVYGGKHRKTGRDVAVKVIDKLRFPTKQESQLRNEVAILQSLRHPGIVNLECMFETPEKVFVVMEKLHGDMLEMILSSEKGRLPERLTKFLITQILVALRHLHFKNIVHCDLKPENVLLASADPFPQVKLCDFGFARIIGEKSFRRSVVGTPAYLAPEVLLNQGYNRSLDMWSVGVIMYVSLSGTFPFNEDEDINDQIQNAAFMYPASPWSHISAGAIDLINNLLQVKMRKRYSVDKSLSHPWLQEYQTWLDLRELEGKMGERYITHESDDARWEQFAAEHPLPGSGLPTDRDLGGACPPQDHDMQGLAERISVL
Text: as §1

kinases (kinome) [3] = biological target: T3, kinases (kinome) (Homo sapiens, UniProt P15735); conditions: PHKg2 (CAMK), IPI00012891
T3 construct: determined in kinobeads assays with mass spectrometry detection of kinases as described previously; endogenous in cells; host or cells: cell lysate
Text: as §1

kinases (kinome) [4] = biological target: T4, kinases (kinome) (Homo sapiens, UniProt Q9H2G2); conditions: SLK (STE), IPI00022827
T4 construct: determined in kinobeads assays with mass spectrometry detection of kinases as described previously; endogenous in cells; host or cells: cell lysate
Text: as §1

kinases (kinome) [5] = biological target: T5, kinases (kinome) (Homo sapiens, UniProt Q13627); conditions: DYRK1A (CMGC), IPI00014344
T5 construct: determined in kinobeads assays with mass spectrometry detection of kinases as described previously; endogenous in cells; host or cells: cell lysate
Text: as §1

kinases (kinome) [6] = biological target: T6, kinases (kinome) (Homo sapiens, UniProt P06213); conditions: INSR (TK), IPI00025803
T6 construct: determined in kinobeads assays with mass spectrometry detection of kinases as described previously; endogenous in cells; host or cells: cell lysate
Text: as §1

kinases (kinome) [7] = biological target: T7, kinases (kinome) (Homo sapiens, UniProt Q13164); conditions: Erk5 (CMGC), IPI00910923
T7 construct: determined in kinobeads assays with mass spectrometry detection of kinases as described previously; endogenous in cells; host or cells: cell lysate
Text: as §1

kinases (kinome) [8] = biological target: T8, kinases (kinome) (Homo sapiens, UniProt Q8NEB9); conditions: PIK3C3 (Lipid Kinase), IPI00873758
T8 construct: determined in kinobeads assays with mass spectrometry detection of kinases as described previously; endogenous in cells; host or cells: cell lysate
T8 sequence (Q8NEB9 whole entry): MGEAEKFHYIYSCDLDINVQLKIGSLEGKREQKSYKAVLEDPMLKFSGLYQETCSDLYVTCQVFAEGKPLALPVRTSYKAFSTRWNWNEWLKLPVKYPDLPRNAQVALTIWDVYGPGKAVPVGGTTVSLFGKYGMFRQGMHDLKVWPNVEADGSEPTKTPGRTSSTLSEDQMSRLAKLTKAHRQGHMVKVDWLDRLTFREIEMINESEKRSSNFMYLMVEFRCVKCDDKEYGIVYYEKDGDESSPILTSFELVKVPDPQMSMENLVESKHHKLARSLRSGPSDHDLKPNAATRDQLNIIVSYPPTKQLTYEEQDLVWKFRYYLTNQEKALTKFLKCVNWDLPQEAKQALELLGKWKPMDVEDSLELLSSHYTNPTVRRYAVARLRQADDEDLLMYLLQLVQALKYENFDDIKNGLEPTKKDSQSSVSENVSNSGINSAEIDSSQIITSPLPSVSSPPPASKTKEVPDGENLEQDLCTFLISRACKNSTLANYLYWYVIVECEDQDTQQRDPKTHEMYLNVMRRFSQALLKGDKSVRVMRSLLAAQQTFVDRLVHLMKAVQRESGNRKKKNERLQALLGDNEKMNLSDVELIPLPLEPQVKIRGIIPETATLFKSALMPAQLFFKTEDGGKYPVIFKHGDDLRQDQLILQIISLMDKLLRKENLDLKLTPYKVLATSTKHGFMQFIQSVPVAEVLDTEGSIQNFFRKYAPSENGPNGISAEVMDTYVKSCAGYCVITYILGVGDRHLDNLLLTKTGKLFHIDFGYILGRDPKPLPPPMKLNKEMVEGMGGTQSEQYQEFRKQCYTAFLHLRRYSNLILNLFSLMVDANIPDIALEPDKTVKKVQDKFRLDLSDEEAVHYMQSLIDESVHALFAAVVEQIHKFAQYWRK
Text: as §1

kinases (kinome) [9] = biological target: T9, kinases (kinome) (Homo sapiens, UniProt Q9Y6M4); conditions: CK1g3 (CK1), IPI00218437
T9 construct: determined in kinobeads assays with mass spectrometry detection of kinases as described previously; endogenous in cells; host or cells: cell lysate
T9 sequence (Q9Y6M4 whole entry): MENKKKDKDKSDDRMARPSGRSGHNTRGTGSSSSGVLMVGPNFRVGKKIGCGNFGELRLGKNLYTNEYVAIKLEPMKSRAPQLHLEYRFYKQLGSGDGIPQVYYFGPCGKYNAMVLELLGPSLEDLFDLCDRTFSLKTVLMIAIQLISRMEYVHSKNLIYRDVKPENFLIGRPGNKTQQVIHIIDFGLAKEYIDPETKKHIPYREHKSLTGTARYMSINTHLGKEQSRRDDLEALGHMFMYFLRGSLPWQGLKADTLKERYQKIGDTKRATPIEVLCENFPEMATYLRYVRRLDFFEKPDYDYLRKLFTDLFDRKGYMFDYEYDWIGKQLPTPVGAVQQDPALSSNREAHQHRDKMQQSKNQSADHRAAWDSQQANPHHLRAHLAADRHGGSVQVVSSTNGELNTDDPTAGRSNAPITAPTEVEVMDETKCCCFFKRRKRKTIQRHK
Text: as §1

kinases (kinome) [10] = biological target: T10, kinases (kinome) (Homo sapiens, UniProt Q9UQM7); conditions: CaMK2a (CAMK), IPI00550056
T10 construct: determined in kinobeads assays with mass spectrometry detection of kinases as described previously; endogenous in cells; host or cells: cell lysate
Text: as §1

kinases (kinome) [11] = biological target: T11, kinases (kinome) (Homo sapiens, UniProt O60674); conditions: JAK2 (TK), IPI00031016
T11 construct: determined in kinobeads assays with mass spectrometry detection of kinases as described previously; endogenous in cells; host or cells: cell lysate
T11 sequence (O60674 whole entry): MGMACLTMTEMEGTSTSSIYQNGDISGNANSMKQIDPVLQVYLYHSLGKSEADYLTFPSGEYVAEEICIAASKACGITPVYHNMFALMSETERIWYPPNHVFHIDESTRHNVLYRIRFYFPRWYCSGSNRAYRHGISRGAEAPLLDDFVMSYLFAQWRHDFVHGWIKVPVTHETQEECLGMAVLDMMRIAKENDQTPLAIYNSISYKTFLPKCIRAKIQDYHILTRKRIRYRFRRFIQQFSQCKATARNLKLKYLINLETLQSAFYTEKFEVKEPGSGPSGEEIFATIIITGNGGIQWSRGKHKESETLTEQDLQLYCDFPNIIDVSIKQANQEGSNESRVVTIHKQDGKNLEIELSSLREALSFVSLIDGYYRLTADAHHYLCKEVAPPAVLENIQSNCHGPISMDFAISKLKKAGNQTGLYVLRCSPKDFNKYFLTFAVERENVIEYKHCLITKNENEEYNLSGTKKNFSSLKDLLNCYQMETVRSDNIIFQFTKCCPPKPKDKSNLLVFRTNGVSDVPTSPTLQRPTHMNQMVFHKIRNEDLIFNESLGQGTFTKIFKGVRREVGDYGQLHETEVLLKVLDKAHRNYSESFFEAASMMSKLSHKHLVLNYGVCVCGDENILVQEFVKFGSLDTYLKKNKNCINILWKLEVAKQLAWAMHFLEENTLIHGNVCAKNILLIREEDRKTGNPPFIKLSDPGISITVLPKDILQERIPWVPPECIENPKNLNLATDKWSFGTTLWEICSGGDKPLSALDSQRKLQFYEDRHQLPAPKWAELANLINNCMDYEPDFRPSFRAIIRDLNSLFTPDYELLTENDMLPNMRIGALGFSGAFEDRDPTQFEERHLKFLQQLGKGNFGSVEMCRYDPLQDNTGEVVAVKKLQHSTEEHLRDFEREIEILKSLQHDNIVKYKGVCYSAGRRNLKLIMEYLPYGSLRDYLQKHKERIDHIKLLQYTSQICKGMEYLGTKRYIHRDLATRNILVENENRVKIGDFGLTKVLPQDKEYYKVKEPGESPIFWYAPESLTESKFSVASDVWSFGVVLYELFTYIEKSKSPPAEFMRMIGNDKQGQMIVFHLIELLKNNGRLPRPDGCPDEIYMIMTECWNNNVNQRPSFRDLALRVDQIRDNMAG
Text: as §1

kinases (kinome) [12] = biological target: T12, kinases (kinome) (Homo sapiens, UniProt Q13188); conditions: MST2 (STE), IPI00411984
T12 construct: determined in kinobeads assays with mass spectrometry detection of kinases as described previously; endogenous in cells; host or cells: cell lysate
T12 sequence (Q13188 1-491): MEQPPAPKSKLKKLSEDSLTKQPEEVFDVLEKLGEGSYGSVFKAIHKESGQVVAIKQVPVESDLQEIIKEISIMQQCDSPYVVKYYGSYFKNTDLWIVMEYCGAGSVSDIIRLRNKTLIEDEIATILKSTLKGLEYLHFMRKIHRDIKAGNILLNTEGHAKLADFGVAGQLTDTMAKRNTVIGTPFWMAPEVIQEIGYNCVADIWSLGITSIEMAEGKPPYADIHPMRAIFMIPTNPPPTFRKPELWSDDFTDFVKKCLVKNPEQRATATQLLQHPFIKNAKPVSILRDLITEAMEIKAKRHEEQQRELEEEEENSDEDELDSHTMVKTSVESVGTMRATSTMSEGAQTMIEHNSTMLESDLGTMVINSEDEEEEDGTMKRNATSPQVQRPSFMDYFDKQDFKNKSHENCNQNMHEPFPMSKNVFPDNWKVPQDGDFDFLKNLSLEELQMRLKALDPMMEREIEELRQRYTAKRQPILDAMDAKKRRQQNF
Text: as §1

kinases (kinome) [13] = biological target: T13, kinases (kinome) (Homo sapiens, UniProt P48426); conditions: PIP5K2A (Lipid Kinase), IPI00009688
T13 construct: determined in kinobeads assays with mass spectrometry detection of kinases as described previously; endogenous in cells; host or cells: cell lysate
Text: as §1

kinases (kinome) [14] = biological target: T14, kinases (kinome) (Homo sapiens, UniProt Q13873); conditions: BMPR2 (TKL), IPI00783156
T14 construct: determined in kinobeads assays with mass spectrometry detection of kinases as described previously; endogenous in cells; host or cells: cell lysate
Text: as §1

kinases (kinome) [15] = biological target: T15, kinases (kinome) (Homo sapiens, UniProt Q86TW2); conditions: ADCK1 (Atypical), IPI00787836
T15 construct: determined in kinobeads assays with mass spectrometry detection of kinases as described previously; endogenous in cells; host or cells: cell lysate
Text: as §1

kinases (kinome) [16] = biological target: T16, kinases (kinome) (Homo sapiens, UniProt Q8N752); conditions: CK1a2 (CK1), IPI00167096
T16 construct: determined in kinobeads assays with mass spectrometry detection of kinases as described previously; endogenous in cells; host or cells: cell lysate
T16 sequence (Q8N752 whole entry): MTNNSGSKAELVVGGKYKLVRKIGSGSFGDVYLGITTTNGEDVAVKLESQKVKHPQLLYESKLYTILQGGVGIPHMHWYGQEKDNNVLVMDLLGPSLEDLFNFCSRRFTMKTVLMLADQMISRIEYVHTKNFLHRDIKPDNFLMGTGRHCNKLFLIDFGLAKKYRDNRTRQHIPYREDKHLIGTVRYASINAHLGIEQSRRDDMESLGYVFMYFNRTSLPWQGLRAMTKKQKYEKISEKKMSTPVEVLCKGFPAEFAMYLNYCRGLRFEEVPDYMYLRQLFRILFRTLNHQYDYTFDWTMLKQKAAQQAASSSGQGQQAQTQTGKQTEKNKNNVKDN
Text: as §1

kinases (kinome) [17] = biological target: T17, kinases (kinome) (Homo sapiens, UniProt Q16513); conditions: PKN2 (AGC), IPI00002804
T17 construct: determined in kinobeads assays with mass spectrometry detection of kinases as described previously; endogenous in cells; host or cells: cell lysate
Text: as §1

kinases (kinome) [18] = biological target: T18, kinases (kinome) (Homo sapiens, UniProt Q99759); conditions: MAP3K3 (STE), IPI00181703
T18 construct: determined in kinobeads assays with mass spectrometry detection of kinases as described previously; endogenous in cells; host or cells: cell lysate
T18 sequence (Q99759 whole entry): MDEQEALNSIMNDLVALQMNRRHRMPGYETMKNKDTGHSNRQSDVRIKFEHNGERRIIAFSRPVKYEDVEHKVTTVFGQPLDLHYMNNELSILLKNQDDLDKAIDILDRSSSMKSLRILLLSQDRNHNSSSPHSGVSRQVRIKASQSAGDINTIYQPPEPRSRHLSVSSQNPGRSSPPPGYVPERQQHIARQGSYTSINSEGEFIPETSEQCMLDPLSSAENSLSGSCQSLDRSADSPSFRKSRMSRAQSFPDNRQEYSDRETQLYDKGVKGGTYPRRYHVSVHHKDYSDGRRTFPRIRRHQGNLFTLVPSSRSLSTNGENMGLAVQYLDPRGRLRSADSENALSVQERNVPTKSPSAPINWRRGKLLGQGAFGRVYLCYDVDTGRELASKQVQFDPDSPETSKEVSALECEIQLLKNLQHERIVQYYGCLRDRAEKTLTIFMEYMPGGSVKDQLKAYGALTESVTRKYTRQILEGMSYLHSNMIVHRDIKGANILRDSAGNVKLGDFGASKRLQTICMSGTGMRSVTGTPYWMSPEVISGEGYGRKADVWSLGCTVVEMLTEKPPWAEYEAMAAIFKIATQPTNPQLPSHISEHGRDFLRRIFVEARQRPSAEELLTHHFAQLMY
Text: as §1

kinases (kinome) [19] = biological target: T19, kinases (kinome) (Homo sapiens, UniProt P78368); conditions: CK1g2 (CK1), IPI00297767
T19 construct: determined in kinobeads assays with mass spectrometry detection of kinases as described previously; endogenous in cells; host or cells: cell lysate
Text: as §1

Measured: IC50

T1 sequence (P51812 whole entry): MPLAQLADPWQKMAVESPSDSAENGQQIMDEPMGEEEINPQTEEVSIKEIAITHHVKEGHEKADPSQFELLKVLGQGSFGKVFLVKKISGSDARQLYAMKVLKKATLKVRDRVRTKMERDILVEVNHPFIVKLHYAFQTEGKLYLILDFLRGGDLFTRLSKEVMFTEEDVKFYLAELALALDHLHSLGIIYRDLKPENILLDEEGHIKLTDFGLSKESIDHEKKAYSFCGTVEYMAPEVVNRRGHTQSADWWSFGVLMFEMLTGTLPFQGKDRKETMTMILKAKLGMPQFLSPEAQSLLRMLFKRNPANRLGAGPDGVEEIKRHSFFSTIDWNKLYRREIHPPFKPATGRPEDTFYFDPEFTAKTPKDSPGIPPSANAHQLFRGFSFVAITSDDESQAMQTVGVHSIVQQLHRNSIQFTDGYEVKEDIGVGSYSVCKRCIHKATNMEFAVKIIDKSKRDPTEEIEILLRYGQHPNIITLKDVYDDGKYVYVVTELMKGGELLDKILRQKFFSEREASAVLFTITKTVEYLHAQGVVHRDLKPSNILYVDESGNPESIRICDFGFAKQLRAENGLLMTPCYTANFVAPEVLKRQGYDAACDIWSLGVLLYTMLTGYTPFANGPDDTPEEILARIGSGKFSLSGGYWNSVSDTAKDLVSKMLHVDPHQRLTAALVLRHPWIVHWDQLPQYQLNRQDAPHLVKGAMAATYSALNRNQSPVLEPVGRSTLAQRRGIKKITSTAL

C[C@H]1COCCN1c1nc(-c2ccc(NC(=O)NC3CC3)cc2)cc(-c2ccccc2S(C)(=O)=O)n1 [Example 4, (S)-1-cyclopropyl-3-(4-(2-(3-methylmorpholino)-6-(2-(methylsulfonyl)phenyl)pyrimidin-4-yl)phenyl)urea]
> 10 µM: kinases (kinome) [1] | kinases (kinome) [2] | kinases (kinome) [3] | kinases (kinome) [4] | kinases (kinome) [5] | kinases (kinome) [6] | kinases (kinome) [7] | kinases (kinome) [8] | kinases (kinome) [9]

CCNC(=O)Nc1ccc(-c2cc(-c3ccccc3C#N)nc(N3CCOC[C@@H]3C)n2)cc1 [Example 8, (S)-1-(4-(6-(2-cyanophenyl)-2-(3-methylmorpholino)pyrimidin-4-yl)phenyl)-3-ethylurea]
> 10 µM: kinases (kinome) [10] | kinases (kinome) [9]

C[C@H]1COCCN1c1nc(-c2ccc(NC(=O)NC3CC3)cc2)cc(-c2cc(F)ccc2S(C)(=O)=O)n1 [Example 40, (S)-1-cyclopropyl-3-(4-(6-(5-fluoro-2-(methylsulfonyl)phenyl)-2-(3-methylmorpholino)pyrimidin-4-yl)phenyl)urea]
not listed: kinases (kinome) [4] | kinases (kinome) [5] | kinases (kinome) [7] | kinases (kinome) [9] | kinases (kinome) [10] | kinases (kinome) [19]
> 10 µM: all other assays above

C[C@H]1COCCN1c1cc(-c2ccccn2)nc(-c2ccc(NC(=O)NCCO)cc2)n1 [Example 43, (S)-1-(2-hydroxyethyl)-3-(4-(4-(3-methylmorpholino)-6-(pyridin-2-yl)pyrimidin-2-yl)phenyl)urea]
> 10 µM: kinases (kinome) [12] | kinases (kinome) [8] | kinases (kinome) [17]

C[C@H]1COCCN1c1nc(-c2ccc(NC(=O)NC3CC3)cc2)cc(-c2cccnc2S(C)(=O)=O)n1 [Example 46, (S)-1-cyclopropyl-3-(4-(2-(3-methylmorpholino)-6-(2-(methylsulfonyl)pyridin-3-yl)pyrimidin-4-yl)phenyl)urea]
> 10 µM: kinases (kinome) [11] | kinases (kinome) [12] | kinases (kinome) [8] | kinases (kinome) [19]

C[C@H]1COCCN1c1nc(-c2ccc(NC(=O)N[C@H]3CCC[C@@H]3O)cc2)cc(-c2cc(F)ccc2S(C)(=O)=O)n1 [Example 76, 1-(4-(6-(5-fluoro-2-(methylsulfonyl)phenyl)-2-((S)-3-methylmorpholino)pyrimidin-4-yl)phenyl)-3-((1S,2S)-2-hydroxycyclopentyl)urea]
> 10 µM: kinases (kinome) [8] | kinases (kinome) [18]

Reference: patent publication US9249129B2, “Morpholino substituted urea derivatives as mTOR inhibitors” (CELLZOME LIMITED, priority 2010, dated 2016)
